Measured values taken from patent US20130130903A1, “Suppression of Foliar and Soilborne Pathogens” (priority 2003, published 2013).

What was measured:
[1] = system: non-inoculated wheat; experiment: Field yield of non-inoculated spring wheat after herbicide treatment; assay type: in vivo; settings: for Yield: 2002, non-inoculated, glyphosate on glyphosate res. wheat, Buctril/Harmony on sensitive wheat
Description: (§1) This example describes the response of glyphosate resistant and glyphosate sensitive spring wheat to inoculation with soil pathogens as judged by wheat yield. Inoculation simulates the green-bridge effect of dying weeds and volunteer in a standing wheat crop. The soil pathogens assessed were: Rhizoctonia solani isolate AG-8 and Gaeumannomyces graminis var. tritici. These pathogenic strains are prevalent in the Pacific Northwest and were isolated from the region. They have been maintained by the Department of Plant Pathology and USDA researchers at Washington State University.
(§2) Near isogenic lines (glyphosate resistant and glyphosate sensitive) of Westbred 926 and Bobwhite were seeded using a no-till drill at three different sites (Lind, Davenport and Pullman, Wash.).
(§3) To introduce the root pathogens into the wheat seed for distribution into the field, oat seeds, autoclaved and sterilized, were inoculated for each soilborne pathogen using isolated pathogen cultures. Oat seeds that were non-inoculated, but sterilized and autoclaved, served as a control. Following two weeks of pathogen growth, the inoculated oat seeds were dried down for 2 days and screened for potential contamination. To establish a green-bridge, a mixture of 15% barley and 20% oat inoculum seeds (by weight) were planted using a small plot no-till drill. One week after planting the introduced green-bridge, the wheat isolines were planted in rows adjacent to the barley green-bridge rows in a randomized, split-plot design, replicated in five randomized blocks. Inoculum treatment served as the main plot, and response to herbicides as the subplot factor.
(§4) This example describes the effect of herbicide treatment on spring wheat, averaged over all disease treatments, planted as described in Example 1. The appropriate herbicide was applied to each trial once the plants reached the 4-5 leaf stage with a custom built hand-pulled sprayer outfitted with a boom with a length of 16 feet with spray shields on the side to minimize drift. In this manner, an entire plot was treated at once with the appropriate herbicide rate. Entries that were resistant to glyphosate were treated with ROUNDUP® brand herbicide (0.63 kg/ha), available from Monsanto, St. Louis, Mo. Herbicide sensitive and resistant entries were treated with a common broadleaf herbicide treatment (Buctril/Harmony) or a no-spray control. Introduced green-bridge barley and any other weeds were manually removed 7-10 days after spray treatment to simulate the time required for ROUNDUP to take effect and maintained weed-free conditions to provide an accurate comparison to commercial weed management strategies needed to assess potential herbicide/disease interactions. […]

[2] = system: Gaeumannomyces graminis var. tritici (Ggt); experiment: Field yield of Ggt inoculated spring wheat after herbicide treatment; assay type: in vivo; settings: for Yield: Ggt inoculated, glyphosate on glyphosate res. wheat, Buctril/Harmony on sensitive wheat
Description: as §1, §2, §3, §4

[3] = system: Rhizoctonia solani isolate AG-8; experiment: Field yield of Rhizoctonia inoculated spring wheat after herbicide treatment; assay type: in vivo; settings: for Yield: glyphosate on glyphosate res. wheat, Buctril/Harmony on sensitive wheat
Description: as §1, §2, §3, §4

[4] = system: stripe rust; experiment: Bobwhite NILs under natural stripe rust infection, Pullman 2002; assay type: in vivo, Puccinia striiformis; settings: for Yield: Pullman 2002, cultivar Bobwhite (res.)
Description: as §1, §2, §3
This example describes the effect of herbicide treatment on spring wheat, averaged over all disease treatments, planted as described in Example 1. The appropriate herbicide was applied to each trial once the plants reached the 4-5 leaf stage with a custom built hand-pulled sprayer outfitted with a boom with a length of 16 feet with spray shields on the side to minimize drift. In this manner, an entire plot was treated at once with the appropriate herbicide rate. Entries that were resistant to glyphosate were treated with ROUNDUP® brand herbicide (0.63 kg/ha), available from Monsanto, St. Louis, Mo. Herbicide sensitive and resistant entries were treated with a common broadleaf herbicide treatment (Buctril/Harmony) or a no-spray control. Introduced green-bridge barley and any other weeds were manually removed 7-10 days after spray treatment to simulate the time required for ROUNDUP to take effect and maintained weed-free conditions to provide an accurate comparison to commercial weed management strategies needed to assess potential herbicide/disease interactions.
This example describes the effect of herbicides on natural stripe rust infection of NILs of Bobwhite with and without glyphosate tolerance. The wheat was seeded and inoculated with Rhizoctonia and Ggt as described in Example 1. The yield results from the Pullman site are recorded in Table 6.

[5] = system: soybean rust; experiment: Suppression of soybean rust on glyphosate resistant soybean lines; assay type: in vivo
Description: This example describes the suppression of soybean rust using glyphosate treatment of glyphosate resistant soybean varieties.
Two different Roundup Ready soybean lines were used: Line 1 (purple flowers/grey pubescence) and Line 2 (white flowers/grey pubescence). Both lines are glyphosate resistant and have been classified as maturity group 3, with white or purple flowers and grey pubescence. The following treatments were used:
Treatment 1: No glyphosate spray before or after inoculation
Treatment 2: One application of glyphosate (48 oz./A) ([…] of active ingredient) three days before inoculation
Treatment 3: Twice the amount of glyphosate as in Treatment 2 (96 oz./A) ([…] of active ingredient) applied three days before inoculation
Treatment 4: One application of glyphosate (48 oz./A) three days before inoculation, and one application (48 oz./A) (1.5 kg/ha of active ingredient) when symptoms of soybean rust first appeared.
Treatment 5: No glyphosate spray before inoculation, and one application (48 oz./A) (1.5 kg/ha of active ingredient) when symptoms of soybean rust first appeared.

[6] = system: Ggt; settings: New Zealand studies; green-bridge effect on couch grass; cited from earlier work

Work on `O=C(O)CNCP(=O)(O)O` [glyphosate, N-phosphonomethylglycine] yielded a Yield ([1]; Davenport) of 29.1 bu/acre, a Yield ([1]; Lind) of 14.2 bu/acre and a Yield ([1]; Pullman) of 55.6 bu/acre. For the same molecule, the “yield of glyphosate-resistant wheat lines” value ([1]; in the absence of additional pathogen inoculum) was “increases yield”, the Yield ([2]; Davenport) was 28.7 bu/acre and the Yield ([2]; Lind) was 14.4 bu/acre. The Yield ([2]; Pullman) was 57.0 bu/acre, the “yield versus untreated and Buctril/Harmony treated glyphosate sensitive wheat” value ([2]; glyphosate resistant, Ggt inoculated wheat, each location) was “significantly superior (P<0.05)” and the Yield ([3]; Davenport) was 29.0 bu/acre. The Yield ([3]; Lind) was 14.0 bu/acre, the Yield ([3]; Pullman) was 53.9 bu/acre and the “yield relative to untreated and Buctril/Harmony treated glyphosate sensitive wheat” value ([3]; glyphosate resistant wheat) was “enhanced yield at each location”. The stripe rust symptoms ([4]; Bobwhite cultivars under severe stripe rust conditions) was “only moderate stripe rust symptoms”, the Yield ([4]; inoculation Ggt) was 49.0 bu/acre and the Yield ([4]; inoculation None) was 44.9 bu/acre. For the same molecule, the Yield ([4]; inoculation Rhizoctonia) was 40.0 bu/acre, the “yields of glyphosate resistant Bobwhite NILs” value ([4]; regardless of what pathogen had been introduced) was “superior yields” and the “effect on soy rust” value ([5]; treatments 2 and 3: 48 oz./A or 96 oz./A three days before inoculation) was “dose-dependent effect on soy rust”. For the same molecule, the “effect on soybean infected with soy rust” value ([5]; treatments 4 and 5: 48 oz./A when symptoms of soybean rust first appeared) was “curative effect” and the “levels of infection of cereals with Ggt” value [6] was “increases the levels of infection with Ggt”.
